Measurements reported in paper PMC11994961, “In Vivo pharmacokinetic interactions of ribociclib with rivaroxaban and apixaban in rats: implications for increased drug exposure and dose adjustments” (Frontiers in Pharmacology, 2025).
Entries after “also recorded” stand apart in the source; their conditions may differ. Like-named read-outs stand apart in the source and are kept apart here.

How the values were obtained:
[1] = test system: CYP3A4; set-up: method as in Sorf et al., 2018; conditions: in vitro; ref Sorf et al., 2018; read-out: half-maximal inhibitory concentration (IC50) against CYP3A4; cited from earlier work
[2] = set-up: method as in Samant et al., 2020; conditions: ref Samant et al., 2020, cited from earlier work
[3] = Stability of ribociclib QC samples in rat plasma; type: in vitro ADME; conditions: room temperature, autosampler 15°C, −80°C, three freeze-thaw cycles
Description: The method was validated per the guidelines of the Food and Drug Administration (US-FDA, 2022) and Chinese Pharmacopoeia (2020). Selectivity was determined by analyzing blank plasma samples from six different batches of rats and plasma samples from six different batches of rats after administration of ribociclib. There should be no interference, with retention times such that the blank plasma peak area is less than 5% of the internal standard (IS) and less than 20% of the lower limit of quantification (LLOQ). The calibration curves were evaluated using 10–4,000 ng/mL of ribociclib. Linearity was assessed by plotting the peak area ratios of the analyte to the IS against nominal concentrations, using weighted (1/x^2) least-squares linear regression. Accuracy and precision were determined for all concentrations derived from the calibration curves, ensuring that deviations were within 15% of the nominal concentration, except for the LLOQ, where the deviation should not exceed 20%. Precision and accuracy were assessed by analyzing plasma samples at low, medium, high, and LLOQ concentration levels over three consecutive days. The final precision and accuracy were determined by calculating the relative standard deviation (RSD) and relative error (RE) of the six samples. RSD and RE for QC concentrations were required to be within ±15%, and for the LLOQ, within ±20%. […]

[4] = Pharmacokinetic study of ribociclib in rats, alone and after rivaroxaban or apixaban (UPLC-MS/MS plasma levels); type: in vivo, Sprague-Dawley rats; conditions: for Cmax / AUC(0-inf) / AUC(0-t) / Tmax / half-life / CL/F / MRT inf / MRT last / Vd/F: Sprague-Dawley, rat, plasma, 60 mg/kg; for CL/F: read-out: CLz/F (converted); for MRT inf: read-out: MRT0- ∞; for MRT last: read-out: MRT0-t; for Vd/F: read-out: Vz/F
Description: Experimental animals were randomly divided into nine groups (n = 6, Table 1). Ribociclib was suspended in methylcellulose (MC), rivaroxaban was prepared in hydroxypropyl methylcellulose (HPMC), and apixaban was suspended in 5% DMSO in water. To achieve steady-state blood concentrations, a drug typically requires five to seven half-lives. Based on this principle, ribociclib was administered orally for eight consecutive days, while rivaroxaban and apixaban were administered orally for five consecutive days to ensure steady-state concentrations were reached before further analysis. Approximately 0.1 mL of blood was collected into heparinized tubes via the orbitalat specified time points before and after the final drug administration. […] Blood samples were centrifuged at 3,500 rpm for 10 min, and the supernatant was collected and stored at −80°C until processing for UPLC-MS/MS. Apixaban and rivaroxaban concentrations in plasma samples were determined using our previously established UPLC-MS/MS method ([Wang et al., 2023]). Ribociclib concentrations were quantified using an LC-30A UPLC system (Shimadzu, Kyoto, Japan) coupled with a Sciex Triple Quad 5500 tandem quadrupole mass spectrometer (AB Sciex, Framingham, MA, United States) equipped with an electrospray ionization interface. Chromatographic separation was performed using a Welch Boltimate column (2.1 mm × 100 mm, 2.7 μm) maintained at 40°C. The mobile phase was composed of water containing 0.1% formic acid (phase A) and acetonitrile (phase B). The flow rate was held constant at 0.3 mL/min. […] The injection volume was 1 μL. The mass spectrometer operated in positive ion mode and multiple reaction monitoring (MRM) mode for detection and quantification. The monitored transitions of precursors to product ions were as follows: 441.3→332.1 for ribociclib-d6 and 435.3.→322.1 for ribociclib (Figure 1). The mass spectrometer conditions, including delustering potential (DP) and collision energy (CE) of the compounds, are shown in Table 2. Other parameters of the mass spectrometer were as follows: ion source gas 160.0 psi; ion source gas 2,50.0 psi; curtain gas, 25.0 psi. The source temperature was 500°C and the ion spray voltage was 5,500 V. A 50 µL plasma sample was mixed with 5 µL of the IS working solution, followed by the addition of 150 µL of acetonitrile. The mixture was vortexed for 2 min and then centrifuged at 12,000 rpm for 10 min. Next, 70 µL of the supernatant was collected and mixed with 70 µL of 50% (v/v) of acetonitrile in water. The mixture was vortexed for 1 min, and then 1 µL was injected into the UPLC-MS/MS system for analysis. […] The area under the concentration–time curve (AUC), maximum plasma concentration (Cmax), time to maximum plasma concentration (Tmax), the time required to eliminate half of the plasma drug concentration (t1/2), clearance of drug plasma volume per unit time (CLz/F), apparent volume distribution (Vz/F), mean residence time (MRT) and the absorption rate constant (Ka) are all expressed as mean ± standard deviation (SD). SPSS 25.0 statistical software (SPSS Inc., Chicago, IL, United States) was applied to statistically analyze the mainpharmacokinetic parameters. Shapiro-Wilk test was used to assess whether the data were normally distributed, t test was used for parameters conforming to the normal distribution, and Mann-Whitney U test was used for parameters not conforming to the normal distribution. Statistical comparisons were conducted using a analysis of variance, t-test or nonparametric rank-sum test depending on the data type.

[5] = po, rats, RIBO 60 mg/kg after API 0.5 mg/kg for 5 days
[6] = po, rats, RIBO 60 mg/kg after RIVA 2 mg/kg for 5 days
[7] = po, rats, oral RIBO 60 mg/kg alone

In the case of `CN(C)C(=O)c1cc2cnc(Nc3ccc(N4CCNCC4)cn3)nc2n1C1CCCC1` [RIBO, ribociclib], the IC50 [1] is listed as […], the “reduction of AUC” value ([2]; with rifampicin, a strong CYP3A inducer) is listed as 89% and the “increase of AUC” value ([2]; with ritonavir, a strong CYP3A inhibitor) is listed as 3.2 fold. The “stability of QC samples” value [3] was “excellent stability”, the Cmax ([4]; oral, rats administered 60 mg/kg) was roughly 1.5 µg/mL and the AUC(0-inf) [4, 5] was 25.2 µg·h/mL. It also gave an AUC(0-t) [4, 5] of 24.5 µg·h/mL, a Cmax [4, 5] of 2.08 ± 0.4 µg/mL and a Tmax [4, 5] of 4.33 ± 1.37 h. The half-life [4, 5] was 8.25 ± 2.87 h, the CL/F [4, 5] was 2.41 L/h/kg and the MRT inf [4, 5] was 11 ± 2.83 h. It also gave an MRT last [4, 5] of 9.71 ± 1.15 h, a Vd/F [4, 5] of 28.3 ± 8.33 L/kg and an AUC(0-inf) [4, 6] of 21.5 µg·h/mL. For the same molecule, the AUC(0-t) [4, 6] was 21.4 µg·h/mL, the Cmax [4, 6] was 1.6 µg/mL and the Tmax [4, 6] was 4.33 ± 0.52 h. It also gave a half-life [4, 6] of 6.13 ± 1.41 h, a CL/F [4, 6] of 2.83 L/h/kg and an MRT inf [4, 6] of 10.1 ± 2.16 h. It also gave an MRT last [4, 6] of 9.77 ± 1.74 h, a Vd/F [4, 6] of 24.7 ± 4.85 L/kg and an AUC(0-inf) [4, 7] of 20.8 µg·h/mL. For the same molecule, the AUC(0-t) [4, 7] was 20.3 µg·h/mL, the Cmax [4, 7] was 1.62 µg/mL and the Tmax [4, 7] was 2.4 ± 0.89 h. For the same molecule, the half-life [4, 7] was 7.87 ± 4.17 h, the CL/F [4, 7] was 2.96 L/h/kg and the MRT inf [4, 7] was 11.8 ± 4.35 h. The MRT last [4, 7] was 10.1 ± 1.79 h, the Vd/F [4, 7] was 35.5 ± 26.3 L/kg and the “changes in the pharmacokinetic parameters” value ([4]; rats, RIBO 60 mg/kg after multiple doses of apixaban vs alone) was “no significant changes; also recorded: did not alter”. The “changes in the pharmacokinetic parameters” value ([4]; rats, RIBO 60 mg/kg after multiple doses of rivaroxaban vs alone) was “no significant changes; also recorded: did not alter” and the “slight increase in Cmax” value ([4]; rats, RIBO 60 mg/kg, apixaban group vs alone) was “not statistically significant”.
